Test results from patent publication US20020019543A1, “Thiol derivative, metallo-beta-lactamase inhibitors” (priority 2000, published 2002).

Tests used:
[1] = test system: E. coli BL21(DE3)/pET30a-IMP-1; format: cell-based; conditions: thioester conc giving 4-fold increase in sensitivity to the Merck carbapenem (0.25x MIC), no visible growth after 20 hours at 35° C.
Description: (§1) A laboratory strain of E.coli engineered to express IMP-1 was used to evaluate the ability of thiol derivatives to reverse metallo-β-lactamase-mediated carbapenem resistance in bacteria. Native IMP-1, which included the N-terminal periplasmic signal sequence, was PCR amplified from […] isolated from a carbapenem resistant P. aeruginosa clinical isolate, CL56673, and cloned into the pET30a vector.

E. coli BL21(DE3) = test: Carbapenem sensitivity (MIC) of E. coli BL21(DE3) with and without IMP-1 expression; format: cell-based; conditions: for fold reduced sensitivity caused by basal (uninduced) IMP-1 expression: pET30a-IMP-1 in E. coli BL21(DE3)
Procedure: as §1, with “vector. […] Various concentrations of IMP-1 inhibitor were added to the bacterial growth medium and their capacity to effect a four-fold or greater increase in sensitivity to the carbapenem was monitored.” for “vector.”

| Compound | Effective conc for 4-fold reduction of MIC in E. coli [1] | fold reduced sensitivity caused by basal (uninduced) IMP-1 expression (E. coli BL21(DE3)) | further results |
| --- | --- | --- | --- |
| CC(=O)N[C@H](C)C(=O)S[C@H](Cc1ccc(-c2ccccc2)cc1)C(=O)O [Example 13] | 6.3 µM | – | – |
| CC(=O)SC(Cc1ccc2oc3ccccc3c2c1)C(=O)O (centres unmarked) [Example 78] | ≦0.1 μM | – | – |
| O=C(SC(Cc1ccc2oc3ccccc3c2c1)C(=O)O)c1ccccc1 (centres unmarked) [Example 79] | 0.2 µM | – | – |
| C[C@@H](O)[C@H]1C(=O)N2C(C(=O)O)=C(SCCN=CN)C[C@H]12 [impenem] | – | 4 fold | – |
| C[C@@H](O)[C@H]1C(=O)N2C(C(=O)O)=C(S[C@@H]3CN[C@H](C(=O)N(C)C)C3)[C@H](C)[C@H]12 [meropenem] | – | 64 fold | – |
| (1S,5R,6S)-1-methyl-2-{7-[4-(aminocarbonylmethyl)-1,4-diazoniabicyclo(2.2.2)octan-1-yl]methyl-fluoren-9-on-3-yl}-6-(1R-hydroxyethyl)-carbapen-2-em-3-carboxylate chloride | – | 500 fold | minimum inhibitory concentration (MIC), without IMP-1 expression (E. coli BL21(DE3); E. coli BL21(DE3), before expression of IMP-1): 0.06 to 0.12 µg/mL; minimum inhibitory concentration (MIC), with IMP-1 expression (E. coli BL21(DE3); E. coli BL21(DE3)/pET30a-IMP-1, basal IMP-1 expression): 16 to 32 µg/mL |
